In patent EP0932388B1, “DOSAGE FORM AND METHOD FOR ADM[…]” (ALZA CORPORATION, priority 1996, dated 1998):

Test system: school children
Assay: clinical study of methylphenidate release profiles (SKAMP and CLAM ratings, mathematics test, activity monitor)
Format: in vivo
Conditions: oral
Experimental: The CLAM Test is a behavior rating that indicates social conformity or rebellion as developed by Conners, Lonez, and Milch and SKAMP is a rating that also measures behavior as developed by Swanson and reported in Psychopharmacological Bulletin, Vol. 21, pp. 887-890 (1985).
The effect measurements in this study were: (1) observer ratings on SKAMP scale (during classroom time) and (2) performance on the computerized mathematics test. Each child was tested on the mathematics test before the study began, and based on this pre-test during the study, a mathematics test appropriate for each child's ability was given. The morning and evening parent CLAM assessments were used to identify unusual behaviors. The evening parent CLAM was used to determine the presence of treatment effects in the evening hours, particularly treatment effects on the time the child fell asleep, and whether the child's sleep was interrupted. All of the children also wore an activity monitor (Actigraph) which records the movements of the child throughout the day. The activity (number of movements per minute) is recorded electronically and modeled as a function of the drug effect.
The immediate release tablet and the sustained-release dosage form were compared to a sustained-release dosage form that administered methylphenidate in an ascending profile. The sustained-release ascending profile corresponds to administering 4.2 mg at zero hour, 1.1 mg at 1.5 hours, 1.1 mg at 2 hours, 1.2 mg at 2.5 hours, 1.2 mg at 3.0 hours, 1.3 mg at 3.5 hours, 1.3 mg at 4 hours, 1.5 mg at 4.5 hours, 1.5 mg at 5 hours, 1.8 mg at 5.5 hours, 1.8 mg at 6 hours, and 2.0 mg at 6.5 hours, to produce the sustained-ascending release dotted line profile seen in Figure 2.
The accompanying figures present the results of the above-described study. […]

SMILES: COC(=O)C(c1ccccc1)C1CCCCN1 (stereo not drawn) [methylphenidate]
- therapeutic effect and tolerance (controlled-sustained ascending profile of methylphenidate): desired therapeutic effect without tolerance
- acute tolerance (sustained-nonascending dose of methylphenidate (20 mg program)): development of acute tolerance
- behavior, activity and mathematical scores (sustained-nonascending dose of methylphenidate (20 mg program), versus placebo): a decrease in activity, higher mathematical scores and a lessening of inappropriate behavior
